Source: paper PMC6409085, “Three odorant-binding proteins are involved in the behavioral response of Sogatella furcifera to rice plant volatiles” (PeerJ, 2019)
“And” between values parts separate entries of the source, which are not always exact repeats. Identical values can stand only once.

Columns and labels:
[1] = tested on: S. furcifera adults; test: Y-tube olfactometer behavioral trials; format: in vivo, Sogatella furcifera; settings: odorant 50 µL/L vs hexane; adults
Method in brief: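 Single S. furcifera adults (2 days post-emergence, starved 0.5 h) chose between odorant (100 µL of 50 µL/L on filter paper) and hexane control in a glass Y-tube, charcoal-filtered humidified air 300 mL/min per arm, 25 ± 1 °C, 50% RH. Choice scored if insect passed half an arm and stayed >1 min within 10 min; 45 insects per compound, chi-squared test.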

[2] = biological target: SfurOBP11 (Sogatella furcifera, UniProt V5T6E3); test: biochemical; format: binding
Method in brief: (§1)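 In 50 mM Tris-HCl pH 7.4, odorants displace 1-NPN (2.0 µM) from 2.0 µM protein. Emission at 390–490 nm under 337 nm excitation is measured 2 min after competitor addition, in triplicate. Ki is obtained from IC50 and the 1-NPN dissociation constant.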

[3] = biological target: SfurOBP2 (Sogatella furcifera, UniProt V5T759); test: biochemical; format: binding
Method in brief: as §1

[4] = biological target: SfurOBP3 (Sogatella furcifera, UniProt V5T818); test: biochemical; format: binding; settings: for Fluorescence competitive binding assay, fluorescence intensity: OBP3, three replicate columns
Method in brief: as §1

[5] = biological target: SfurOBP1 (Sogatella furcifera, UniProt V5T8N5); test: biochemical; format: binding; settings: for Fluorescence competitive binding assay, fluorescence intensity: OBP1, three replicate columns
Method in brief: as §1

SfurOBP2, sequence (V5T759 entry or part of it): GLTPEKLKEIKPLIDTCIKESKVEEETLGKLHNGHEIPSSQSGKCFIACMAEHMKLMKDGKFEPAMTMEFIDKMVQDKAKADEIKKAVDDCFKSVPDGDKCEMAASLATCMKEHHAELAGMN
SfurOBP3, sequence (V5T818 entry or part of it): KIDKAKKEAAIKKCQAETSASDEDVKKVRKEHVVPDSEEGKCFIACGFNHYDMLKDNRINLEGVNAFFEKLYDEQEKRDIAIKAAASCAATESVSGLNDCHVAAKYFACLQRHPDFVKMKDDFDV
SfurOBP11, sequence (V5T6E3 entry or part of it): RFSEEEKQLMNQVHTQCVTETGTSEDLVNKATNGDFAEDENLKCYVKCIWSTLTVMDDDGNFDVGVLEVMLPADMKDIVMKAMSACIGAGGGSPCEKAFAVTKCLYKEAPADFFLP
SfurOBP1, sequence (V5T8N5 entry or part of it): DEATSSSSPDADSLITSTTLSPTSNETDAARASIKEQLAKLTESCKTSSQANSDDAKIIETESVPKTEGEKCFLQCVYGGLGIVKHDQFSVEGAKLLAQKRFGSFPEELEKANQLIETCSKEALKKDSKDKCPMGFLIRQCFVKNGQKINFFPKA

SMILES: CCCCCCCCCCCCC=O [tridecanal]
- number of insects choosing hexane arm [1]: 11
- number of insects choosing volatilies arm [1]: 13
- number of insects failed (no choice) [1]: 16
- IC50 ([2]; SfurOBP11, protein and 1-NPN both 2.0 µM, competitor 2-20 µM, read-out: IC50): > 20 µM
- Fluorescence intensity, fluorescence competitive binding assay, OBP11 ([2]; ligand concentration 2, replicate 1): 24967
- Fluorescence intensity, fluorescence competitive binding assay, OBP11 ([2]; ligand concentration 2, replicate 2): 25926
- Fluorescence intensity, fluorescence competitive binding assay, OBP11 ([2]; ligand concentration 2, replicate 3): 30699
- Fluorescence intensity, fluorescence competitive binding assay, OBP11 ([2]; ligand concentration 4, replicate 1): 25125
- Fluorescence intensity, fluorescence competitive binding assay, OBP11 ([2]; ligand concentration 4, replicate 2): 27382
- Fluorescence intensity, fluorescence competitive binding assay, OBP11 ([2]; ligand concentration 4, replicate 3): 26896
- Fluorescence intensity, fluorescence competitive binding assay, OBP11 ([2]; ligand concentration 6, replicate 1): 26493
- Fluorescence intensity, fluorescence competitive binding assay, OBP11 ([2]; ligand concentration 6, replicate 2): 26335
- Fluorescence intensity, fluorescence competitive binding assay, OBP11 ([2]; ligand concentration 6, replicate 3): 26650
- Fluorescence intensity, fluorescence competitive binding assay, OBP11 ([2]; ligand concentration 8, replicate 1): 24847
- Fluorescence intensity, fluorescence competitive binding assay, OBP11 ([2]; ligand concentration 8, replicate 2): 24250
- Fluorescence intensity, fluorescence competitive binding assay, OBP11 ([2]; ligand concentration 8, replicate 3): 25420
- Fluorescence intensity, fluorescence competitive binding assay, OBP11 ([2]; ligand concentration 10, replicate 1): 24577
- Fluorescence intensity, fluorescence competitive binding assay, OBP11 ([2]; ligand concentration 10, replicate 2): 24121
- Fluorescence intensity, fluorescence competitive binding assay, OBP11 ([2]; ligand concentration 10, replicate 3): 25032
- Fluorescence intensity, fluorescence competitive binding assay, OBP11 ([2]; ligand concentration 12, replicate 1): 26676
- Fluorescence intensity, fluorescence competitive binding assay, OBP11 ([2]; ligand concentration 12, replicate 2): 27183
- Fluorescence intensity, fluorescence competitive binding assay, OBP11 ([2]; ligand concentration 12, replicate 3): 26168
- Fluorescence intensity, fluorescence competitive binding assay, OBP11 ([2]; ligand concentration 14, replicate 1): 24529
- Fluorescence intensity, fluorescence competitive binding assay, OBP11 ([2]; ligand concentration 14, replicate 2): 23823
- Fluorescence intensity, fluorescence competitive binding assay, OBP11 ([2]; ligand concentration 14, replicate 3): 25235
- Fluorescence intensity, fluorescence competitive binding assay, OBP11 ([2]; ligand concentration 16, replicate 1): 23763
- Fluorescence intensity, fluorescence competitive binding assay, OBP11 ([2]; ligand concentration 16, replicate 2): 25792
- Fluorescence intensity, fluorescence competitive binding assay, OBP11 ([2]; ligand concentration 16, replicate 3): 24713
- Fluorescence intensity, fluorescence competitive binding assay, OBP11 ([2]; ligand concentration 18, replicate 1): 29957
- Fluorescence intensity, fluorescence competitive binding assay, OBP11 ([2]; ligand concentration 18, replicate 2): 29942
- Fluorescence intensity, fluorescence competitive binding assay, OBP11 ([2]; ligand concentration 18, replicate 3): 30678
- Fluorescence intensity, fluorescence competitive binding assay, OBP11 ([2]; ligand concentration 20, replicate 1): 31322
- Fluorescence intensity, fluorescence competitive binding assay, OBP11 ([2]; ligand concentration 20, replicate 2): 31721
- Fluorescence intensity, fluorescence competitive binding assay, OBP11 ([2]; ligand concentration 20, replicate 3): 27795
- IC50 ([3]; SfurOBP2, protein and 1-NPN both 2.0 µM, competitor 2-20 µM, read-out: IC50): > 20 µM
- Fluorescence competitive binding assay, OBP2 (raw fluorescence reading) ([3]; ligand concentration 2 (unit not given), replicate column 1 of 3): 15375
- Fluorescence competitive binding assay, OBP2 (raw fluorescence reading) ([3]; ligand concentration 2 (unit not given), replicate column 2 of 3): 16260
- Fluorescence competitive binding assay, OBP2 (raw fluorescence reading) ([3]; ligand concentration 2 (unit not given), replicate column 3 of 3): 17114
- Fluorescence competitive binding assay, OBP2 (raw fluorescence reading) ([3]; ligand concentration 4 (unit not given), replicate column 1 of 3): 15250
- Fluorescence competitive binding assay, OBP2 (raw fluorescence reading) ([3]; ligand concentration 4 (unit not given), replicate column 2 of 3): 17637
- Fluorescence competitive binding assay, OBP2 (raw fluorescence reading) ([3]; ligand concentration 4 (unit not given), replicate column 3 of 3): 17949
- Fluorescence competitive binding assay, OBP2 (raw fluorescence reading) ([3]; ligand concentration 6 (unit not given), replicate column 1 of 3): 17180
- Fluorescence competitive binding assay, OBP2 (raw fluorescence reading) ([3]; ligand concentration 6 (unit not given), replicate column 2 of 3): 18194
- Fluorescence competitive binding assay, OBP2 (raw fluorescence reading) ([3]; ligand concentration 6 (unit not given), replicate column 3 of 3): 18919
- Fluorescence competitive binding assay, OBP2 (raw fluorescence reading) ([3]; ligand concentration 8 (unit not given), replicate column 1 of 3): 15100
- Fluorescence competitive binding assay, OBP2 (raw fluorescence reading) ([3]; ligand concentration 8 (unit not given), replicate column 2 of 3): 16066
- Fluorescence competitive binding assay, OBP2 (raw fluorescence reading) ([3]; ligand concentration 8 (unit not given), replicate column 3 of 3): 16289
- Fluorescence competitive binding assay, OBP2 (raw fluorescence reading) ([3]; ligand concentration 10 (unit not given), replicate column 1 of 3): 16213
- Fluorescence competitive binding assay, OBP2 (raw fluorescence reading) ([3]; ligand concentration 10 (unit not given), replicate column 2 of 3): 16940
- Fluorescence competitive binding assay, OBP2 (raw fluorescence reading) ([3]; ligand concentration 10 (unit not given), replicate column 3 of 3): 17695
- Fluorescence competitive binding assay, OBP2 (raw fluorescence reading) ([3]; ligand concentration 12 (unit not given), replicate column 1 of 3): 14964
- Fluorescence competitive binding assay, OBP2 (raw fluorescence reading) ([3]; ligand concentration 12 (unit not given), replicate column 2 of 3): 18259
- Fluorescence competitive binding assay, OBP2 (raw fluorescence reading) ([3]; ligand concentration 12 (unit not given), replicate column 3 of 3): 16491
- Fluorescence competitive binding assay, OBP2 (raw fluorescence reading) ([3]; ligand concentration 14 (unit not given), replicate column 1 of 3): 16687
- Fluorescence competitive binding assay, OBP2 (raw fluorescence reading) ([3]; ligand concentration 14 (unit not given), replicate column 2 of 3): 18876
- Fluorescence competitive binding assay, OBP2 (raw fluorescence reading) ([3]; ligand concentration 14 (unit not given), replicate column 3 of 3): 18074
- Fluorescence competitive binding assay, OBP2 (raw fluorescence reading) ([3]; ligand concentration 16 (unit not given), replicate column 1 of 3): 17882
- Fluorescence competitive binding assay, OBP2 (raw fluorescence reading) ([3]; ligand concentration 16 (unit not given), replicate column 2 of 3): 16512
- Fluorescence competitive binding assay, OBP2 (raw fluorescence reading) ([3]; ligand concentration 16 (unit not given), replicate column 3 of 3): 18645
- Fluorescence competitive binding assay, OBP2 (raw fluorescence reading) ([3]; ligand concentration 18 (unit not given), replicate column 1 of 3): 18334
- Fluorescence competitive binding assay, OBP2 (raw fluorescence reading) ([3]; ligand concentration 18 (unit not given), replicate column 2 of 3): 17452
- Fluorescence competitive binding assay, OBP2 (raw fluorescence reading) ([3]; ligand concentration 18 (unit not given), replicate column 3 of 3): 17782
- Fluorescence competitive binding assay, OBP2 (raw fluorescence reading) ([3]; ligand concentration 20 (unit not given), replicate column 1 of 3): 16896
- Fluorescence competitive binding assay, OBP2 (raw fluorescence reading) ([3]; ligand concentration 20 (unit not given), replicate column 2 of 3): 19235
- Fluorescence competitive binding assay, OBP2 (raw fluorescence reading) ([3]; ligand concentration 20 (unit not given), replicate column 3 of 3): 19174
- Fluorescence competitive binding assay, fluorescence intensity ([4]; ligand concentration 2): 42528 and 41583 and 43473
- Fluorescence competitive binding assay, fluorescence intensity ([4]; ligand concentration 4): 41210 and 39055 and 38819
- Fluorescence competitive binding assay, fluorescence intensity ([4]; ligand concentration 6): 40763 and 42069 and 38391
- Fluorescence competitive binding assay, fluorescence intensity ([4]; ligand concentration 8): 40006 and 42611 and 39486
- Fluorescence competitive binding assay, fluorescence intensity ([4]; ligand concentration 10): 37952 and 40731 and 37192
- Fluorescence competitive binding assay, fluorescence intensity ([4]; ligand concentration 12): 41103 and 37710 and 38844
- Fluorescence competitive binding assay, fluorescence intensity ([4]; ligand concentration 14): 39070 and 39869 and 40524
- Fluorescence competitive binding assay, fluorescence intensity ([4]; ligand concentration 16): 39064 and 38170 and 38620
- Fluorescence competitive binding assay, fluorescence intensity ([4]; ligand concentration 18): 39885 and 40160 and 39604
- Fluorescence competitive binding assay, fluorescence intensity ([4]; ligand concentration 20): 39750 and 40400 and 40150
- IC50 ([4]; SfurOBP3, protein and 1-NPN both 2.0 µM, competitor 2-20 µM, read-out: IC50): > 20 µM
- Fluorescence competitive binding assay, fluorescence intensity ([5]; ligand concentration 2 (μM)): 7938 and 8209 and 9100
- Fluorescence competitive binding assay, fluorescence intensity ([5]; ligand concentration 4 (μM)): 8199 and 9497 and 8248
- Fluorescence competitive binding assay, fluorescence intensity ([5]; ligand concentration 6 (μM)): 9970 and 9490 and 9404
- Fluorescence competitive binding assay, fluorescence intensity ([5]; ligand concentration 8 (μM)): 9879 and 9942 and 9021
- Fluorescence competitive binding assay, fluorescence intensity ([5]; ligand concentration 10 (μM)): 11694 and 10870 and 12178
- Fluorescence competitive binding assay, fluorescence intensity ([5]; ligand concentration 12 (μM)): 10792 and 13471 and 12081
- Fluorescence competitive binding assay, fluorescence intensity ([5]; ligand concentration 14 (μM)): 13762 and 12603 and 7069
- Fluorescence competitive binding assay, fluorescence intensity ([5]; ligand concentration 16 (μM)): 15566 and 12262 and 13672
- Fluorescence competitive binding assay, fluorescence intensity ([5]; ligand concentration 18 (μM)): 13469 and 13374 and 13884
- Fluorescence competitive binding assay, fluorescence intensity ([5]; ligand concentration 20 (μM)): 16296 and 16551 and 15519
- IC50 ([5]; SfurOBP1, protein and 1-NPN both 2.0 µM, competitor 2-20 µM, read-out: IC50): > 20 µM
